# Patent US9233143B2, “Medicinal agent for preventing exacerbation of malignant tumor, comprising combination of natriuretic peptide receptor GC-A and GC-B agonists” (National Cerebral and Cardiovascular Center, priority 2011, dated 2016)
# Columns and labels:
# tumor cells = conditions: reports by Vesely et al.; cited from earlier work
# A549 cells [1] = experiment: EMT induced by TGF-β1 in A549 cells (morphology, quantitative RT-PCR); format: cell-based, human; conditions: for effect of suppressing EMT: concentration of 1 μM, summary of Example 2
# Method: Using a 6-well dish, the A549 cells were cultured at 1×10^5 cells/well, and the culture medium was replaced with DMEM culture medium free from FBS the next day. After 24 hours of culture, the cells were used in the following experiment.
# An ANP group (a hANP solution was added (final concentration: 1 μM)) and a control group (the same amount of physiological saline was added) were prepared, and after 2 hours from the addition (of the hANP solution or the physiological saline) to the A549 cells, TGF-β1 was added so that the final concentration would be 0.125, 0.25, 0.5, 1.0, and 2.0 ng/mL. After 24 hours had passed, the morphological change in the cells was observed under a microscope and photographed (FIG. 2).
# Then, total RNA was recovered from the above prepared ANP group and control group using TRIZOL total RNA isolation reagent (made by Invitrogen), cDNA was synthesized using reverse transcriptase, and the mRNA levels of E-cadherin, N-cadherin, VEGF-A, PDGF-B, TNF-α, and IL-6 were measured by quantitative RT-PCR. The mRNA level of each intended gene was calculated as the relative ratio of the mRNA amount of the gene to that of the housekeeping gene 36B4 measured at the same time. In the Examples below, unless otherwise stated, the mRNA levels were obtained through the same calculation.
# It is known that in EMT, the expression of E-cadherin decreases while the expression of N-cadherin increases. The expression ratio of the two kinds of cadherin (N-cad/E-cad) is considered to be useful as an indicator of the degree of EMT.
# A549 cells [2] = experiment: Changes in the intracellular cGMP level in response to natriuretic peptide stimulus, A549 cells; format: cell-based, human; conditions: 1×10^−11 M to 1×10^−6 M, 10 minutes, FIG. 1A
# Method: Lung adenocarcinoma cell line, A549 cells, was obtained from ATCC (Manassas, Va.). The cells were cultured in DMEM culture medium (Invitrogen, Carlsbad, Va.) containing 10% FCS under 5% CO2 at 37° C. The amounts of the culture medium were 1.5 mL for each well of a 6-well dish, 400 μL for each well of a 24-well dish, and 150 μL for each well of a 96-well dish. In the Examples below, unless otherwise stated, the same culture medium and culture conditions were adopted.
# (§1) The A549 cells were cultured in a 24-well dish at 4×10^4 cells/well, and the culture medium was replaced with DMEM culture medium free from FCS the next day. The CAFs were cultured in a 24-well dish at 1×10^4 cells/well, and the culture medium was replaced with DMEM culture medium containing 1% FCS the next day.
# (§2) To these culture media, solutions of hANP, hBNP, and hCNP-22 (final concentration: ten-fold serial dilution from 1×10^−11 M to 1×10^−6 M, the same amount of physiological saline was used as a control) were separately added. After 10 minutes had passed, 400 μL of cooled 70% ethanol (containing 0.1 N hydrochloric acid) was added, and ultrasonication was performed for a short time. The treated solution was lyophilized, and the cGMP level was measured using Cyclic GMP Assay kit (made by Yamasa Corp.).
# CAFs = experiment: Production of cancer exacerbation factors by CAFs under TGF-β1 stimulus (quantitative RT-PCR); format: cell-based, human; conditions: test substance 1 μM, TGF-β1 0.125-2.0 ng/mL, 24 hours, mRNA level, FIG. 5
# Method: Using a 6-well dish, the CAFs were cultured at 5×10^4 cells/well, and the culture medium was replaced with DMEM culture medium containing 1% FBS the next day. After 24 hours of culture, the cells were used in the following experiment.
# A CNP group (a hCNP-22 solution was added (final concentration: 1 μM)) and a control group (the same amount of physiological saline was added) were prepared, and after 2 hours from the addition (of the hCNP-22 solution or the physiological saline) to the CAFs, TGF-β1 was added so that the final concentration would be 0.125, 0.25, 0.5, 1.0, and 2.0 ng/mL. After 24 hours had passed, total RNA was recovered using TRIZOL total RNA isolation reagent, cDNA was synthesized using reverse transcriptase, and the mRNA levels of VEGF-A, TGF-β1, TNF-α, and IL-6 were measured by quantitative RT-PCR.
# [3] = test system: cancer-associated fibroblasts (CAFs); experiment: Changes in the intracellular cGMP level in response to natriuretic peptide stimulus, CAFs; format: cell-based, human; conditions: 1×10^−11 M to 1×10^−6 M, 10 minutes, FIG. 1B
# Method: For obtaining CAFs (cancer-associated fibroblasts), tissue harvested from a patient having lung cancer surgery was subjected to primary culture after the consent of the patient was obtained. The cells were then cultured in DMEM culture medium containing 10% FCS under 5% CO2 at 37° C., and the cells of the 5th and earlier passages were used.
# as §1, §2
# [4] = test system: A549 cells co-cultured with CAFs; experiment: Co-culture system of cancer cells and CAFs (mRNA of the A549 cells); format: cell-based, human; conditions: each test substance 1 μM
# Method: In a 6-well dish, the A549 cells were cultured at 1×10^5 cells/well. The culture medium was replaced with DMEM culture medium free from FBS the next day, and the cells were further cultured for 24 hours. In a 6-well dish having a cell culture insert (1.0 μm pore size, made by BD), the CAFs were cultured at 5×10^4 cells/well. The culture medium was replaced with DMEM culture medium containing 1% FBS the next day, and the cells were further cultured for 24 hours. To each culture medium of the two kinds of cells, test substances were separately added to prepare test substance addition groups. Control groups with no test substance were also prepared. After two hours of culture, these were subjected to co-culture. The test substance addition groups were ANP groups containing hANP at a final concentration of 1 μM, CNP groups containing hCNP-22 at a final concentration of 1 μM, and ANP+CNP groups containing both hANP and hCNP-22 each at a final concentration of 1 μM. Each of the groups were prepared by adding the test substance to each culture medium of the two kinds of cells.
# On the 6-well dish of A549 cells treated as above, the above cell culture insert with the CAFs was placed to prepare a co-culture experimental model where only the culture media could pass through the cell culture insert. After 24, 48, and 72 hours of culture, total RNA of the A549 cells only was recovered, cDNA was synthesized, and the mRNA levels of E-cadherin, N-cadherin, VEGF-A, PDGF-B, and IL-6 were measured by quantitative RT-PCR (FIGS. 6 to 8). The experiment using ANP alone (ANP groups: FIG. 6), the experiment using CNP alone (CNP groups: FIG. 7), and the experiment using ANP and CNP in combination (ANP+CNP group: FIG. 8) were independently conducted, where control groups were separately set for each experiment.
# A549 cells and CAFs = experiment: Mouse models having transplanted cancer cells and CAFs, administration started after tumor tissue was established (Example 6); format: in vivo; conditions: hCNP-22 alone 2.5 μg/kg/min, started 2 weeks after transplantation, 4 weeks, FIG. 10
# Method: In this Example and Example 6, 5-week-old male immunodeficient mice (KSN mice, Japan SLC, Inc.) were used. The osmotic pumps used were MODEL2004 (for 28-day administration) made by ALZET (Cupertino, Calif.). A mixed suspension of the A549 cells and the CAFs was prepared using DMEM free from FBS so as to contain the A549 cells at 1×10^6 cells/100 μL and the CAFs at 0.5×10^6 cells/100 μL. The mixed suspension in an amount of 100 μL per mouse was subcutaneously injected in the back of the immunodeficient mice. […] After 2 weeks of observation from the injection of the cell suspension, the mice to which the mixed suspension had been injected were randomly divided into 4 groups (control group, ANP group, CNP group, and ANP+CNP group), and an osmotic pump appropriately adjusted for each group as shown below was subcutaneously implanted to start administration. • Control group and A549 group: physiological saline was administered • ANP group: hANP was administered at 0.5 μg/kg/min • CNP group: hCNP-22 was administered at 2.5 μg/kg/min • ANP+CNP group: hANP was administered at 0.5 μg/kg/min and hCNP-22 was administered at 2.5 μg/kg/min Observation was further continued for 4 weeks after the start of administration, the tumor size at the cell injection site was measured weekly, and tumor volume was calculated in the same way as in Example 5 (FIG. 10).
# [5] = A549 cells, test substance 1 μM, mRNA level, FIG. 3
Substance,growth-suppressing activity on tumor (cancer) cells (tumor cells),effect of suppressing EMT (A549 cells [1]),intracellular cGMP level of the A549 cells (A549 cells [2]),"gene expression of the growth factors (VEGF-A, TGF-β1) and the inflammatory cytokines (TNF-α, IL-6) increased by the TGF-β1 stimulus in CAFs (CAFs)",cGMP level of the CAFs [3],other results
"kalliuretic peptide: peptide in reports by Vesely et al., sequence not likely to contribute to binding to GC-A (SSDRSALLKSKLRALLTAPR; Kaliuretic peptide; UniProt P01160 104-123, looked up)",the same or stronger growth-suppressing activity,–,–,–,–,–
"hCNP-22: 22-amino acid CNP-22 of human origin (GLSKGCFGLKLDRIGSMSGLGC: SEQ ID NO: 7), GC-B agonist (GLSKGCFGLKLDRIGSMSGLGC; listed as Homo sapiens)",–,did not show such an effect at all,did not show such increase,significantly suppressed,increased the cGMP level of the CAFs in a concentration-dependent manner,"morphological change in the cells associated with EMT induced by the TGF-β1 stimulus (A549 cells [1]; A549 cells, test substance 1 μM, 24 hours after TGF-β1, FIG. 2): the same as those of the control; gene expression of the growth factors (VEGF-A, PDGF-B) and the inflammatory cytokines (TNF-α, IL-6) increased by EMT induced by the TGF-β1 stimulus (A549 cells [1]; A549 cells, test substance 1 μM, TGF-β1 0.125-2.0 ng/mL, 24 hours, mRNA level, FIG. 3): the same as those of the control; decrease in the expression of E-cadherin induced by the TGF-β1 stimulus (A549 cells [1]; [5]): the same as those of the control; increase in the expression of N-cadherin induced by the TGF-β1 stimulus (A549 cells [1]; [5]): the same as those of the control; gene expression of the growth factors (VEGF-A, PDGF-B) and inflammatory cytokine (IL-6) increased in the co-culture ([4]; A549 cells co-cultured with CAFs 24, 48, 72 hours, FIGS. 6 to 8): could not suppress; expression ratio of N-cadherin/E-cadherin (N-cad/E-cad), indicator of EMT, in the co-culture ([4]; A549 cells co-cultured with CAFs, FIGS. 6D, 7D, 8D): did not show any effect; tumor growth as compared with the control group (A549 cells and CAFs): showed an effect of tumor growth suppression"
"hBNP: 32-amino acid BNP of human origin (SPKMVQGSGCFGRKMDRISSSSGLGCKVLRRH: SEQ ID NO: 3), GC-A agonist",does not have such a growth-suppressing activity,significantly suppressing EMT,increased the intracellular cGMP level of the A549 cells in a concentration-dependent manner,did not show any effect on CAFs,did not show such an action,–
"vessel dilator: peptide in reports by Vesely et al., sequence not likely to contribute to binding to GC-A (EVVPPQVLSEPNEEAGAALSPLPEVPPWTGEVSPAQR; Vessel dilator; UniProt P01160 56-92, looked up)",the same or stronger growth-suppressing activity,–,–,–,–,–
"long acting natriuretic peptide: peptide in reports by Vesely et al., sequence not likely to contribute to binding to GC-A (NPMYNAVSNADLMDFKNLLDHLEEKMPLED; Long-acting natriuretic peptide; UniProt P01160 26-55, looked up)",the same or stronger growth-suppressing activity,–,–,–,–,–
